Data published in patent publication US20250009745A1, “CDK INHIBITOR” (SHANGHAI QILU PHARMACEUTICAL RESEARCH AND DEVELOPMENT …, priority 2021, published 2025).

How the values were obtained:
CDK2 = molecular target: T1, CDK2 (Homo sapiens, UniProt P24941); test: CDK enzymology experiment in vitro, capillary mobility shift assay (MSA); type: biochemical; details: read-out: CDK2 (nM) inhibitory IC50
T1 construct: purchased Carna Company
Procedure: (§1) CDK1/CDK2/CDK4/CDK6/CDK7/CDK9 were purchased from Carna Company; Carliper substrate CTD3/substrate 18/substrate 8 were purchased from Gil Biochemical Company; Dinaciclib/Palbociclib were purchased from Selleckchem Company; DMSO was purchased from Sigma Company; 384-well plates were purchased from Corning Company.
(§2) • (1) Preparation of 1×Kinase buffer. • (2) Preparation of compound concentration gradient: Test concentration of the test compound was started at 1 μM, 10 μM or 30 μM, 3-fold dilution, 10 concentrations, detected in duplicate. The test compound was diluted to a 100-fold final concentration with 100% DMSO solution in a 384 source plate. Liquid handler Echo 550 was used to transfer 250 nL of 100-fold final concentration of the compound to the target plate 384-well plate. […] The 384-well plate was centrifuged at 1000 rpm for 30 seconds, and shaken to mix uniformly. • (10) The conversion rate was read with Caliper EZ Reader.
(§3) Where, conversion %_sample is the readings of conversion rate of the sample; conversion %_min: the average value of negative control wells, representing the readings of conversion rate of wells without enzyme activity; conversion %_max: the average value of positive control wells, representing the readings of conversion rate of wells without compound inhibition.
(§4) Taking the log value of the concentration as the X-axis, and the percentage inhibition rate as the Y-axis, the dose-effect curve was fitted using the log(inhibitor) vs. response—Variable slope of the analysis software GraphPad Prism 5 so as to obtain the IC50 value of each compound on the enzyme activity.
(§5) Y=Bottom+(Top−Bottom)/(1+10^((Log IC50−X)*HillSlope)). Calculation formula: […]

CDK4 = molecular target: T2, CDK4 (Homo sapiens, UniProt P11802); test: as above; type: biochemical; details: read-out: CDK4 (nM) inhibitory IC50
T2 construct: purchased Carna Company
Procedure: as §1, §2, §3, §4, §5

T2 sequence (P11802 whole entry): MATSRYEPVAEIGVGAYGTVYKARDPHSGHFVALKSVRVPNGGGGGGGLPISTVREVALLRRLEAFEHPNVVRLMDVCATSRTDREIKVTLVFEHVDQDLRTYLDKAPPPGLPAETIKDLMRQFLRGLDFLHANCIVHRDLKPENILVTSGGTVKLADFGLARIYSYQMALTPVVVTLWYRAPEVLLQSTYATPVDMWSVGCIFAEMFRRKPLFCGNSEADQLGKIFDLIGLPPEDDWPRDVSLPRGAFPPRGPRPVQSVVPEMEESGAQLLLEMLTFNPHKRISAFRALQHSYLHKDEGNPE
T2 sequence (P30281 whole entry partner): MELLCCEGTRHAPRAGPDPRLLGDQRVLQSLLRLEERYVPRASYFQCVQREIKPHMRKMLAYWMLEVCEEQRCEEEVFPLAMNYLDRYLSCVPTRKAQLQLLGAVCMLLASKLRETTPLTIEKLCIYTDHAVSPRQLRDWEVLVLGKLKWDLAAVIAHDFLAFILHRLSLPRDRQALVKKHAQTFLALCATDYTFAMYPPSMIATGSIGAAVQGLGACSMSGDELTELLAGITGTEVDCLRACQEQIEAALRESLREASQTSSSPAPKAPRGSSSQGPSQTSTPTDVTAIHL

Compound	IC50 (CDK2) [nM]	IC50 (CDK4) [nM]
Cn1cc(S(=O)(=O)N2CCC(Nc3ncc(C(F)(F)F)c(O[C@H]4CCOC4)n3)C(F)(F)C2)cn1 (stereo partly shown) [Compound 129]	2.5 to 10	10 to 50
Cn1cc(S(=O)(=O)N2CCC(Nc3ncc(C(F)F)c(O[C@H]4CCOC4)n3)CC2)cn1 [Compound 126]	10 to 50	100 to 1000
CC(C)n1cc(S(=O)(=O)N2CCC(Nc3ncc(C(F)(F)F)c(O[C@H]4CCOC4)n3)CC2)cn1 [Compound 110]	0.5 to 2.5	10 to 50
Cn1cc(S(=O)(=O)N2CCC(Nc3ncc(C(F)(F)F)c(O[C@@H]4COC[C@@H]4O)n3)CC2)cn1 (relative stereo) [Compound 111]	2.5 to 10	50 to 100
Cn1cc(-c2ccc(S(=O)(=O)N3CCC(Nc4ncc(C#N)c(NC5(C)CCOC5)n4)CC3)cc2)cn1 (stereo not shown) [Compound 150]	0.5 to 2.5	2.5 to 10
O=S(=O)(c1cnn(C2CCOCC2)c1)N1CCC(Nc2ncc(C(F)(F)F)c(O[C@H]3CCOC3)n2)CC1 [Compound 108]	0.5 to 2.5	2.5 to 10
O=S(=O)(c1ccc(C2=CCNCC2)cc1)N1CCC(Nc2ncc(C(F)(F)F)c(C=C3CCCC3)n2)CC1 [Compound 201]	0.5 to 2.5	2.5 to 10
O=S(=O)(c1ccc(Br)cc1)N1CCC(Nc2ncc(C(F)(F)F)c(O[C@H]3CCOC3)n2)CC1 [Example 99]	0.5 to 2.5	2.5 to 10
O=S(=O)(c1ccccn1)N1CCC(Nc2ncc(C(F)(F)F)c(O[C@H]3CCOC3)n2)CC1 [Compound 109]	0.5 to 2.5	10 to 50
Cn1cc(S(=O)(=O)N2CCC(Nc3ncc(C(F)(F)F)c(OC4CCCC4)n3)CC2)cn1 [Compound 40]	0.5 to 2.5	2.5 to 10
Cn1cc(S(=O)(=O)N2CCC(Nc3ncc(C(F)(F)F)c(O[C@H]4CCOC4)n3)[C@@H](F)C2)cn1 (stereo partly shown) [Compound 120]	2.5 to 10	10 to 50
Cn1cc(-c2ccc(S(=O)(=O)N3CCC(Nc4ncc(C#N)c(N[C@@H]5CCC[C@@H]5O)n4)CC3)cc2)cn1 [Compound 61]	0.5 to 2.5	2.5 to 10
Cn1cc(S(=O)(=O)N2CC[C@@H](Nc3ncc(C(F)(F)F)c(O[C@H]4CCOC4)n3)[C@H](F)C2)cn1 [Compound 125]	0.5 to 2.5	10 to 50
N#Cc1cnc(NC2CCN(S(=O)(=O)c3ccc(C4=CCNCC4)cc3)CC2)nc1N[C@@H]1CCC[C@H]1O [Compound 91]	0.5 to 2.5	2.5 to 10
O=S(=O)(c1cnn(S(=O)(=O)c2cn[nH]c2)c1)N1CCC(Nc2ncc(C(F)(F)F)c(O[C@H]3CCOC3)n2)CC1 [Example 26, (S)—N-(1-((1-((1H-Pyrazol-4-yl)sulfonyl)-1H-pyrazol-4-yl)sulfonyl)piperidin-4-yl)-4-((tetrahydrofuran-3-yl)oxy)-5-(trifluoromethyl)pyrimidin-2-amine]	< 0.5	2.5 to 10
Cn1cc(S(=O)(=O)N2CCC(Nc3ncc(C(F)(F)F)c(O[C@@H]4COC[C@@H]4F)n3)CC2)cn1 [Compound 124]	2.5 to 10	100 to 1000
Cn1cc(S(=O)(=O)N2CCC(Nc3ncc(C(F)(F)F)c(N[C@@H]4CCC[C@H]4O)n3)CC2)cn1 [Compound 54]	0.5 to 2.5	10 to 50
N#Cc1cnc(NC2CCN(S(=O)(=O)c3ccccn3)CC2)nc1NC1CCCC1 [Compound 36]	2.5 to 10	2.5 to 10
Cn1cc(-c2ccc(S(=O)(=O)N3CCC(Nc4ncc(C#N)c(N[C@@H]5CCOC5)n4)CC3)cc2)cn1 [Compound 95]	0.5 to 2.5	10 to 50
Cn1cc(S(=O)(=O)N2CCC(Nc3cc(O[C@H]4CCOC4)c(C#N)cn3)CC2)cn1 [Compound 158]	2.5 to 10	10 to 50
Cn1cc(S(=O)(=O)N2CC[C@H](Nc3ncc(C(F)(F)F)c(O[C@H]4CCOC4)n3)[C@H](F)C2)cn1 [Compound 127]	< 0.5	10 to 50
CC(C)(O)Cn1cc(S(=O)(=O)N2CCC(Nc3ncc(C(F)(F)F)c(O[C@H]4CCOC4)n3)CC2)cn1 [Compound 156]	0.5 to 2.5	2.5 to 10
O=S(=O)(c1cn[nH]c1)N1CCC(Nc2ncc(C(F)(F)F)c(O[C@H]3CCOC3)n2)CC1 [Example 25]	< 0.5	2.5 to 10
CN1CCC(S(=O)(=O)N2CCC(Nc3ncc(C#N)c(NC4CCCC4)n3)CC2)CC1 [Compound 85]	2.5 to 10	10 to 50
O=S(=O)(c1ccc(C2=CCNCC2)cc1)N1CCC(Nc2ncc(C(F)(F)F)c(N[C@@H]3CCC[C@H]3O)n2)CC1 [Compound 102]	0.5 to 2.5	2.5 to 10

The remaining lines, values ahead:

IC50 (CDK2) [nM]	IC50 (CDK4) [nM]	Compound
10 to 50	100 to 1000	Cn1cc(S(=O)(=O)N2CCC(Nc3ncc(C#N)c(N[C@@H]4CCOC4)n3)CC2)cn1 [Compound 43]
0.5 to 2.5	2.5 to 10	Cn1cc(-c2ccc(S(=O)(=O)N3CCC(Nc4ncc(C#N)c(N[C@@H]5CC[C@@H](O)C5)n4)CC3)cc2)cn1 (single isomer, unassigned) [Compound 63]
2.5 to 10	10 to 50	Cn1cc(S(=O)(=O)N2CCC(Nc3ncc(C#N)c(O[C@H]4CC[C@H](O)C4)n3)CC2)cn1 (relative stereo) [Compound 55]
2.5 to 10	10 to 50	Cn1cc(S(=O)(=O)N2CCC(Nc3ncc(C#N)c(N[C@H]4CC[C@@H](O)C4)n3)CC2)cn1 (single isomer, unassigned) [Example 12]
2.5 to 10	50 to 100	Cn1cc(S(=O)(=O)N2CCC(Nc3ncc(C#N)c(O[C@H]4CC[C@H](O)C4)n3)CC2)cn1 (single isomer, unassigned) [Compound 56]
2.5 to 10	10 to 50	Cn1cc(S(=O)(=O)N2CCC(Nc3ncc(C#N)c(O[C@H]4CCOC4)n3)CC2)cn1 [Compound 64]
10 to 50	10 to 50	C[C@H]1COCCN1c1nc(NC2CCN(S(=O)(=O)c3cnn(C)c3)CC2)ncc1C#N [Compound 75]
2.5 to 10	10 to 50	Cn1cc(S(=O)(=O)N2CCC(Nc3ncc(C#N)c(N[C@@H]4CC[C@@H](O)C4)n3)CC2)cn1 (single isomer, unassigned) [Compound 53]
2.5 to 10	10 to 50	Cn1cc(S(=O)(=O)N2CCC(Nc3ncc(C#N)c(N[C@H]4CCC[C@]4(C)O)n3)CC2)cn1 (single isomer, unassigned) [Example 21]
2.5 to 10	50 to 100	CN(C)[C@@H]1CCCC1Nc1nc(NC2CCN(S(=O)(=O)c3cnn(C)c3)CC2)ncc1C#N (stereo partly shown) [Example 23]
10 to 50	10 to 50	Cn1cc(S(=O)(=O)N2CCC(Nc3ncc(C#N)c(NC(C)(C)C)n3)CC2)cn1 [Compound 42]
50 to 100	100 to 1000	CN1CC[C@@H](Oc2nc(NC3CCN(S(=O)(=O)c4cnn(C)c4)CC3)ncc2C#N)C1 [Compound 73]
2.5 to 10	10 to 50	Cn1cc(S(=O)(=O)N2CCC(Nc3ncc(C#N)c(NC4CCC4)n3)CC2)cn1 [Compound 76]
0.5 to 2.5	2.5 to 10	CN(c1nc(NC2CCN(S(=O)(=O)c3cnn(C)c3)CC2)ncc1C#N)C1CCCC1 [Compound 39]
2.5 to 10	10 to 50	Cn1cc(S(=O)(=O)N2CCC(Nc3ncc(C#N)c(N[C@H]4C[C@@H](O)C4)n3)CC2)cn1 [Compound 77]
0.5 to 2.5	10 to 50	Cn1cc(-c2ccc(S(=O)(=O)N3CCC(Nc4ncc(C#N)c(N[C@@H]5CCC[C@H]5O)n4)CC3)cc2)cn1 [Compound 50]
2.5 to 10	10 to 50	Cn1cc(S(=O)(=O)N2CCC(Nc3ncc(C#N)c(O[C@@H]4CC[C@@H](O)C4)n3)CC2)cn1 (single isomer, unassigned) [Compound 57]
10 to 50	50 to 100	C[C@H](CO)Nc1nc(NC2CCN(S(=O)(=O)c3cnn(C)c3)CC2)ncc1C#N [Compound 70]
0.5 to 2.5	–	Cn1cc(-c2ccc(S(=O)(=O)N3CCC(Nc4ncc(C#N)c(N[C@@H]5CCC[C@H]5O)n4)CC3)cc2)cn1 [Compound 60]
10 to 50	50 to 100	Cn1cc(S(=O)(=O)N2CCC(Nc3ncc(C#N)c(O[C@@H]4CCOC4)n3)CC2)cn1 [Compound 89]
2.5 to 10	100 to 1000	Cn1cc(S(=O)(=O)N2CCC(Nc3ncc(C#N)c(NC4COC4)n3)CC2)cn1 [Compound 80]
< 0.5	10 to 50	Cn1cc(S(=O)(=O)N2CCC(Nc3ncc(C#N)c([S+]([O-])C4CCCC4)n3)CC2)cn1 (stereo not shown) [Compound 98]
2.5 to 10	10 to 50	Cn1cc(S(=O)(=O)N2CCC(Nc3ncc(C#N)c(O[C@@H]4CCC[C@H]4O)n3)CC2)cn1 (single isomer, unassigned) [Compound 67]
2.5 to 10	10 to 50	Cn1cc(S(=O)(=O)N2CCC(Nc3ncc(C#N)c(CC4CCCC4)n3)CC2)cn1 [Example 10, 4-(Cyclopentylmethyl)-2-((1-((1-methyl-1H-pyrazol-4-yl)sulfonyl)piperidin-4-yl)amino)pyrimidine-5-carbonitrile]
